Results reported in ChEMBL document CHEMBL3992518, “Peptide Macrocycle Inhibitor of Coagulation Factor XII with Subnanomolar Affinity and High Target Selectivity” (J Med Chem, 2017).
*1 amine or outer side, *2 acyl side, *3 side chain or, on linkers, in order; H or OH if unused. Where a SMILES comes first, the peptide text is derived from it. Bridges are numbered along the chain shown (N, C = ends). [ ]: non-standard residue; d: D form. TATA = O=C(CC[*:1])N1CN(C(=O)CC[*:2])CN(C(=O)CC[*:3])C1; Phe(4-guanidino) = N=C(N)Nc1ccc(C[C@H](N)C(=O)O)cc1; Agb = N=C(N)NCC[C@H](N)C(=O)O; hLys = NCCCCC[C@H](N)C(=O)O

Each molecule was assayed against T1, Coagulation factor XII (Homo sapiens, UniProt P00748) (assay: Inhibition of human beta factor 12a using fluorogenic substrate Boc-Gln-Gly-Arg-AMC preincubated for 10 mins followed by addition of substrate measured every min for 30 mins).
T1 sequence (P00748 whole entry): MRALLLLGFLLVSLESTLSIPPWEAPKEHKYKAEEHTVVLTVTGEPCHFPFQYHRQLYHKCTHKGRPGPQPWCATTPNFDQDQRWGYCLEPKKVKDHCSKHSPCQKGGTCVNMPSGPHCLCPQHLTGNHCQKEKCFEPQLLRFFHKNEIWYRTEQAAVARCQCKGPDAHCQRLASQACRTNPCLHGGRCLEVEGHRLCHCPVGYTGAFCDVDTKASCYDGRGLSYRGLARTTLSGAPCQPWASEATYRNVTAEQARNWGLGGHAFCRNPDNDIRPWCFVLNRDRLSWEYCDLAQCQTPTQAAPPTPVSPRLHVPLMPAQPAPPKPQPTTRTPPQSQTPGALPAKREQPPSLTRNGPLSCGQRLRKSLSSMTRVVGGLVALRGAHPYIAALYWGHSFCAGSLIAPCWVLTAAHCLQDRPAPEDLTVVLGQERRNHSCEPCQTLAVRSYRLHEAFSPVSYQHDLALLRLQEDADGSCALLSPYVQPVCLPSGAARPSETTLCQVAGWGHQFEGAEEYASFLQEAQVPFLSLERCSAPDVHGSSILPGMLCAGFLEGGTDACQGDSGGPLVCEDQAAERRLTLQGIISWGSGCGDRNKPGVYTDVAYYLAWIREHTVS
A Ki of over 3000 nM was found for `CSCC[C@@H]1NC(=O)[C@H](CCCNC(=N)N)NC(=O)[C@H](Cc2ccccc2)NC(=O)[C@@H](NC(=O)[C@@H](N)CCCNC(=N)N)CSCCC(=O)N2CN3CN(C2)C(=O)CCSC[C@H](NC(=O)[C@@H]2CCCN2C1=O)C(=O)N[C@@H](CCCNC(=N)N)C(=O)N[C@@H](CCC(N)=O)C(=O)N[C@@H](CC(C)C)C(=O)N[C@@H](CCCNC(=N)N)C(=O)N[C@H](C(=O)N[C@@H](CCCNC(=N)N)C(=O)N[C@@H](Cc1c[nH]c2ccccc12)C(=O)O)CSCCC3=O` (H-RCFRMPCRQLRCRW-OH; linker 2-7-12 via TATA) in this work.
A Ki of 19.6 nM was found for `CC(C)C[C@@H]1NC(=O)[C@H](CCCNC(=N)N)NC(=O)[C@H](Cc2ccccc2)NC(=O)[C@@H](NC(=O)[C@@H](N)CCCNC(=N)N)CSCCC(=O)N2CN3CN(C2)C(=O)CCSC[C@@H](C(=O)N[C@@H](CCCNC(=N)N)C(=O)N[C@@H](Cc2c[nH]c4ccccc24)C(=O)O)NC(=O)[C@H](CCCNC(=N)N)NC(=O)[C@H](CC(C)C)NC(=O)[C@H](CCC(N)=O)NC(=O)[C@H](CCCNC(=N)N)NC(=O)[C@H](CSCCC3=O)NC(=O)[C@H](C)NC1=O` (H-RCFRLACRQLRCRW-OH; linker 2-7-12 via TATA) in this work.
A Ki of 51 nM was found for `CC(C)C[C@@H]1NC(=O)[C@H](CCC(N)=O)NC(=O)[C@H](CCCNC(=N)N)NC(=O)[C@@H]2CSCCC(=O)N3CN(CN(C3)C(=O)CCSC[C@H](NC(=O)[C@@H](N)CCCNC(=N)N)C(=O)N[C@@H](Cc3ccccc3)C(=O)N[C@@H](CCCCCN)C(=O)N[C@@H](CC(C)C)C(=O)N3CCC[C@H]3C(=O)N2)C(=O)CCSC[C@@H](C(=O)N[C@@H](CCCNC(=N)N)C(=O)N[C@@H](Cc2c[nH]c3ccccc23)C(=O)O)NC(=O)[C@H](CCCNC(=N)N)NC1=O` (H-RCF[hLys]LPCRQLRCRW-OH; linker 2-7-12 via TATA) in this work.
A Ki of 380 nM was found for `CC(C)C[C@@H]1NC(=O)[C@H](CCC(N)=O)NC(=O)[C@H](CCCNC(=N)N)NC(=O)[C@@H]2CSCCC(=O)N3CN(CN(C3)C(=O)CCSC[C@H](NC(=O)[C@@H](N)CCCNC(=N)N)C(=O)N[C@@H](Cc3ccccc3)C(=O)N[C@@H](Cc3ccc(NC(=N)N)cc3)C(=O)N[C@@H](CC(C)C)C(=O)N3CCC[C@H]3C(=O)N2)C(=O)CCSC[C@@H](C(=O)N[C@@H](CCCNC(=N)N)C(=O)N[C@@H](Cc2c[nH]c3ccccc23)C(=O)O)NC(=O)[C@H](CCCNC(=N)N)NC1=O` (H-RCF[Phe(4-guanidino)]LPCRQLRCRW-OH; linker 2-7-12 via TATA) in this work.
A Ki of 570 nM was found for `CC(C)C[C@@H]1NC(=O)[C@H](CCC(N)=O)NC(=O)[C@H](CCCNC(=N)N)NC(=O)[C@@H]2CSCCC(=O)N3CN(CN(C3)C(=O)CCSC[C@H](NC(=O)[C@@H](N)CCCNC(=N)N)C(=O)N[C@@H](Cc3ccccc3)C(=O)N[C@@H](CCCNC(=N)N)C(=O)N[C@@H](C(C)C)C(=O)N3CCC[C@H]3C(=O)N2)C(=O)CCSC[C@@H](C(=O)N[C@@H](CCCNC(=N)N)C(=O)N[C@@H](Cc2c[nH]c3ccccc23)C(=O)O)NC(=O)[C@H](CCCNC(=N)N)NC1=O` (H-RCFRVPCRQLRCRW-OH; linker 2-7-12 via TATA) in this work.
A Ki of 330 nM was found for `CC(C)C[C@@H]1NC(=O)[C@H](CCC(N)=O)NC(=O)[C@H](CCCNC(=N)N)NC(=O)[C@@H]2CSCCC(=O)N3CN(CN(C3)C(=O)CCSC[C@H](N)C(=O)N[C@@H](Cc3ccccc3)C(=O)N[C@@H](CCCNC(=N)N)C(=O)N[C@@H](CC(C)C)C(=O)N3CCC[C@H]3C(=O)N2)C(=O)CCSC[C@@H](C(=O)N[C@@H](CCCNC(=N)N)C(=O)O)NC(=O)[C@H](CCCNC(=N)N)NC1=O` (H-CFRLPCRQLRCR-OH; linker 1-6-11 via TATA) in this work.
A Ki of 156 nM was found for `CC(C)C[C@@H]1NC(=O)[C@H](CCC(N)=O)NC(=O)[C@H](CCCNC(=N)N)NC(=O)[C@@H]2CSCCC(=O)N3CN(CN(C3)C(=O)CCSC[C@H](NC(=O)[C@@H](N)CCCNC(=N)N)C(=O)N[C@@H](Cc3ccccc3)C(=O)N[C@@H](CCNC(=N)N)C(=O)N[C@@H](CC(C)C)C(=O)N3CCC[C@H]3C(=O)N2)C(=O)CCSC[C@@H](C(=O)N[C@@H](CCCNC(=N)N)C(=O)N[C@@H](Cc2c[nH]c3ccccc23)C(=O)O)NC(=O)[C@H](CCCNC(=N)N)NC1=O` (H-RCF[Agb]LPCRQLRCRW-OH; linker 2-7-12 via TATA) in this work.
A Ki of 0.89 nM was found for `CC(C)C[C@@H]1NC(=O)[C@H](CCC(N)=O)NC(=O)[C@H](CCCNC(=N)N)NC(=O)[C@@H]2CSCCC(=O)N3CN(CN(C3)C(=O)CCSC[C@H](NC(=O)[C@@H](N)CCCNC(=N)N)C(=O)N[C@@H](Cc3ccc(F)cc3)C(=O)N[C@@H](CCCNC(=N)N)C(=O)N[C@@H](CC(C)C)C(=O)N3CCC[C@H]3C(=O)N2)C(=O)CCSC[C@@H](C(=O)N[C@@H](CCCNC(=N)N)C(=O)N[C@@H](Cc2c[nH]c3ccccc23)C(=O)O)NC(=O)[C@H](CCCNC(=N)N)NC1=O` in this work.
A Ki of over 3000 nM was found for `CC(C)C[C@@H]1NC(=O)[C@H](CCC(=O)O)NC(=O)[C@H](CCCNC(=N)N)NC(=O)[C@@H]2CSCCC(=O)N3CN(CN(C3)C(=O)CCSC[C@H](NC(=O)[C@@H](N)CCCNC(=N)N)C(=O)N[C@@H](Cc3ccccc3)C(=O)N[C@@H](CCCNC(=N)N)C(=O)N[C@@H](CC(C)C)C(=O)N3CCC[C@H]3C(=O)N2)C(=O)CCSC[C@@H](C(=O)N[C@@H](CCCNC(=N)N)C(=O)N[C@@H](Cc2c[nH]c3ccccc23)C(=O)O)NC(=O)[C@H](CCCNC(=N)N)NC1=O` (H-RCFRLPCRELRCRW-OH; linker 2-7-12 via TATA) in this work.
A Ki of 132 nM was found for `CC(C)C[C@@H]1NC(=O)[C@H](CCC(N)=O)NC(=O)[C@H](CCCNC(=N)N)NC(=O)[C@@H]2CSCCC(=O)N3CN(CN(C3)C(=O)CCSC[C@H](NC(=O)[C@@H](N)CCCNC(=N)N)C(=O)N[C@@H](C)C(=O)N[C@@H](CCCNC(=N)N)C(=O)N[C@@H](CC(C)C)C(=O)N3CCC[C@H]3C(=O)N2)C(=O)CCSC[C@@H](C(=O)N[C@@H](CCCNC(=N)N)C(=O)N[C@@H](Cc2c[nH]c3ccccc23)C(=O)O)NC(=O)[C@H](CCCNC(=N)N)NC1=O` (H-RCARLPCRQLRCRW-OH; linker 2-7-12 via TATA) in this work.
A Ki of 290 nM was found for `CC(C)C[C@@H]1NC(=O)[C@H](CCC(N)=O)NC(=O)[C@H](CCCNC(=N)N)NC(=O)[C@@H]2CSCCC(=O)N3CN(CN(C3)C(=O)CCSC[C@H](NC(=O)[C@@H](N)CCCNC(=N)N)C(=O)N[C@@H](CCC3CCCCC3)C(=O)N[C@@H](CCCNC(=N)N)C(=O)N[C@@H](CC(C)C)C(=O)N3CCC[C@H]3C(=O)N2)C(=O)CCSC[C@@H](C(=O)N[C@@H](CCCNC(=N)N)C(=O)N[C@@H](Cc2c[nH]c3ccccc23)C(=O)O)NC(=O)[C@H](CCCNC(=N)N)NC1=O` in this work.
A Ki of 10.2 nM was found for `CC(C)C[C@@H]1NC(=O)[C@H](CCC(N)=O)NC(=O)[C@H](CCCNC(=N)N)NC(=O)[C@@H]2CSCCC(=O)N3CN(CN(C3)C(=O)CCSC[C@H](NC(=O)[C@@H](N)CCCNC(=N)N)C(=O)N[C@@H](Cc3ccccc3)C(=O)N[C@@H](CCCNC(=N)N)C(=O)N[C@@H](CC(C)C)C(=O)N3CCC[C@H]3C(=O)N2)C(=O)CCSC[C@@H](C(=O)N[C@@H](CCCNC(=N)N)C(=O)N[C@@H](Cc2c[nH]c3ccccc23)C(=O)O)NC(=O)[C@H](CCCNC(=N)N)NC1=O` (H-RCFRLPCRQLRCRW-OH; linker 2-7-12 via TATA) in this work.
A Ki of 28 nM was found for `CC(C)C[C@@H]1NC(=O)[C@H](CCC(N)=O)NC(=O)[C@H](CCCNC(=N)N)NC(=O)[C@@H]2CSCCC(=O)N3CN(CN(C3)C(=O)CCSC[C@H](NC(=O)[C@@H](N)CCCNC(=N)N)C(=O)N[C@@H](CC(C)C)C(=O)N[C@@H](CCCNC(=N)N)C(=O)N[C@@H](CC(C)C)C(=O)N3CCC[C@H]3C(=O)N2)C(=O)CCSC[C@@H](C(=O)N[C@@H](CCCNC(=N)N)C(=O)N[C@@H](Cc2c[nH]c3ccccc23)C(=O)O)NC(=O)[C@H](CCCNC(=N)N)NC1=O` (H-RCLRLPCRQLRCRW-OH; linker 2-7-12 via TATA) in this work.
A Ki of 10 nM was found for `CC(C)C[C@@H]1NC(=O)[C@H](CCC(N)=O)NC(=O)[C@H](CCCNC(=N)N)NC(=O)[C@@H]2CSCCC(=O)N3CN(CN(C3)C(=O)CCSC[C@H](NC(=O)[C@@H](N)CCCNC(=N)N)C(=O)N[C@@H](Cc3cccc4ccccc34)C(=O)N[C@@H](CCCNC(=N)N)C(=O)N[C@@H](CC(C)C)C(=O)N3CCC[C@H]3C(=O)N2)C(=O)CCSC[C@@H](C(=O)N[C@@H](CCCNC(=N)N)C(=O)N[C@@H](Cc2c[nH]c3ccccc23)C(=O)O)NC(=O)[C@H](CCCNC(=N)N)NC1=O` in this work.
A Ki of 39 nM was found for `Cc1ccc(C[C@@H]2NC(=O)[C@@H](NC(=O)[C@@H](N)CCCNC(=N)N)CSCCC(=O)N3CN4CN(C3)C(=O)CCSC[C@H](NC(=O)[C@@H]3CCCN3C(=O)[C@H](CC(C)C)NC(=O)[C@H](CCCNC(=N)N)NC2=O)C(=O)N[C@@H](CCCNC(=N)N)C(=O)N[C@@H](CCC(N)=O)C(=O)N[C@@H](CC(C)C)C(=O)N[C@@H](CCCNC(=N)N)C(=O)N[C@H](C(=O)N[C@@H](CCCNC(=N)N)C(=O)N[C@@H](Cc2c[nH]c3ccccc23)C(=O)O)CSCCC4=O)cc1` in this work.
A Ki of 59.2 nM was found for `CC(C)C[C@@H]1NC(=O)[C@H](CCC(N)=O)NC(=O)[C@H](CCCNC(=N)N)NC(=O)[C@@H]2CSCCC(=O)N3CN(CN(C3)C(=O)CCSC[C@@H](C(=O)N[C@@H](CCCNC(=N)N)C(=O)O)NC(=O)[C@H](CCCNC(=N)N)NC1=O)C(=O)CCSC[C@H](NC(=O)[C@H](C)N)C(=O)N[C@@H](Cc1ccccc1)C(=O)N[C@@H](CCCNC(=N)N)C(=O)N[C@@H](CC(C)C)C(=O)N1CCC[C@H]1C(=O)N2` (H-ACFRLPCRQLRCR-OH; linker 2-7-12 via TATA) in this work.
